The text below walks through data of patent CN113979875A, “一种地佐辛衍生物晶型a及其制备方法和应用” (Yangtze River Pharmaceutical Group Co Ltd, priority 2020, dated 2022).

Series [1] can be described thus: Grinding test, crystal form by XRPD (Example 7). As to conditions: agate mortar, thorough grinding for half an hour. In kind it is physicochemical.
Series [2] can be described thus: Stress (influencing factor) stability test, crystal form by XRPD (Example 9). In kind it is physicochemical.
Series [3] can be described thus: Intermediate and long-term storage stability (Example 10). Format: physicochemical. As to conditions: 12 months.
In series [4] the target is κ opioid receptor (κ阿片类受体) (Homo sapiens, UniProt P41145). As to the kind of experiment: Radioligand competitive binding, κ opioid receptor (Example 12).
For series [5], the target named is μ opioid receptor (μ阿片类受体) (Homo sapiens, UniProt P35372). Kind of series: Radioligand competitive binding, μ opioid receptor (Example 12).
The target in series [6] is δ opioid receptor (δ阿片类受体) (Homo sapiens, UniProt P41143). Kind of series: Radioligand competitive binding, δ opioid receptor (Example 12).
Setting [7] is: intermediate condition 30℃±2℃/65%±5%RH.
Where [8] appears, read: long-term condition 25℃±2℃/60%±5%RH.

`C[C@@]12CCCCC[C@@H](Cc3ccc(O)cc31)[C@@H]2NCc1ccccc1.Cl` [地佐辛衍生物晶型A]: the “crystal transformation on grinding” value in series [1] is on record as “未转晶”. Also, the crystal form entry is reported as “晶型A” in series [2] (day 0 (initial)); “晶型A” in series [2] (high humidity, 5 days); “晶型A” in series [2] (high humidity, 10 days); “晶型A” in series [2] (high humidity, 30 days); “晶型A” in series [2] (high temperature and high humidity, 5 days); “晶型A” in series [2] (high temperature and high humidity, 10 days). For the same molecule, the crystal form entry in series [2] (high temperature and high humidity, 30 days) was “晶型A”; in series [2] (light, 5 days), “晶型A”; in series [2] (light, 10 days), “晶型A”; in series [2] (light, 30 days) it was “晶型A”. Also, in series [2] (high temperature and high humidity, high humidity, and light (Figs. 9-17)), the “crystal transformation (XRPD compared with initial data)” value is on record as “没有发生转晶现象”. The “change in all quality indices” value in series [2] (light, high temperature and high humidity, high humidity, packed in medicinal LDPE bag and polyester/aluminium/polyethylene composite film) is “各项指标无明显变化,均符合质量标准要求”. Also, the chemical stability entry in series [3] (setting [7]) and in series [3] (setting [8]) was “很好的化学稳定性” in each case. The crystal form stability entry in series [3] (setting [7]) and in series [3] (setting [8]) was “很好的化学稳定性和晶型稳定性” throughout.

One may read the IC50 as the concentration that inhibits the measured activity by half. A lower IC50 goes with higher potency. For `C[C@@]12CCCCC[C@@H](Cc3ccc(O)cc31)[C@@H]2NCc1ccccc1.Cl` [地佐辛衍生物晶型A, 盐酸盐], the half-maximal inhibitory concentration (IC50) in series [4], in series [5] and in series [6] was below 10 nM each time.
